# Data reported in patent US20040175447A1, “Feeds and fertilizers containing pentacyclic triterpenes” (The Nisshin OilliO, Ltd., priority 2001, published 2004).
# System: B-16 melanoma cells
# Assay: Evaluation of melanin production-inhibitory effect (cell-whitening degree of cultured B-16 melanoma cells); on Melanin production-inhibitory effect (cell-whitening degree): key: ++: The whitening degree is higher than that observed for the positive control; +: The whitening degree is almost identical to that observed for the positive control; ±: The whitening degree is not higher than that observed for the positive control, but higher than that observed for the control; −: The whitening degree is almost identical to that observed for the control
# Assay type: cell-based
# Conditions: for Melanin production-inhibitory effect (cell-whitening degree): positive control 450 ppm vitamin C-magnesium phosphate; for melanogenesis-inhibitory function relative to that observed when 450 ppm of vitamin C-magnesium phosphate (standard) is added: from Table 1
# Description: In the present invention, the melanogenesis-inhibitory effect is evaluated and compared on the basis of the results of tests for examining the melanogenesis-inhibitory function in which B-16 melanoma cells are cultivated, as a primary evaluation. Moreover, a feed is, for instance, practically prepared and its effectiveness in the melanogenesis-inhibition is evaluated as a secondary evaluation. It has been confirmed that the pentacyclic triterpenes whose strong melanogenesis-inhibitory function is confirmed by the cell culture test as the primary evaluation also show an excellent effect in the secondary evaluation test. In addition, it has also been confirmed that there is a correlation between the results obtained in these two evaluation methods.
# If the culture system includes a melanogenesis-inhibitory substance during the proliferation thereof, the blackening of the cells is suppressed while the whitening thereof is relatively promoted. Accordingly, the melanogenesis-inhibitory function of the substance can be evaluated by comparing the degree of whitening observed for the substance with the degree of blackening observed for a control. The evaluated results of the melanogenesis-inhibitory effect obtained in this cell culture system clearly indicate that the pentacyclic triterpenes and/or physiologically acceptable salts thereof or derivatives thereof have quite strong melanogenesis-inhibitory effects. For instance, when comparing the effects thereof with that achieved by vitamin C-magnesium phosphate, the melanogenesis-inhibitory effect is about 100 to 200 times, for maslinic acid, about 100 to 200 times, for maslinic acid salts, about 10 to 100 times, for erythrodiol, about 30 to 120 times, for uvaol, about 30 to 120 times, for betulinic acid, about 10 to 100 times, for betulin, about 100 to 200 times, for ethyl maslinate, about 50 to 150 times, for acetylated maslinic acid, about 30 to 120 times, for triethylsilylated maslinic acid, about 50 to 150 times, for stearoyl derivative of ethyl maslinate, about 10 to 100 times, for acetylated erythrodiol, about 10 to 100 times, for acetylated uvaol, about 10 to 100 times, for ethyl betulinate, and about 5 to 50 times, for acetylated betulin, that observed for the vitamin C-magnesium phosphate.
# A culture medium was dispensed to wells of a 6-well plate (2 mL/well each), followed by inoculation of a desired amount of B-16 melanoma cells on each well, allowing the wells to stand at 37° C. and 5% CO2 to thus cultivate the cells. On the day subsequent thereto, a candidate sample (pentacyclic triterpenes) solution prepared was added to and mixed with the culture medium containing the cells and the cultivation was continued. The culture medium was replaced with fresh one on the 5th day from the initiation of the cultivation and the prepared sample solution was again added to the wells. On the next day, the culture medium was removed to recover the cells, followed by the washing of these cells with PBS (phosphate buffered physiological saline) and the subsequent evaluation of the cell-whitening degree. In this respect, the melanogenesis-inhibitory function was evaluated by comparing the cell-whitening degree thus obtained with that observed when using 450 ppm of vitamin C-magnesium phosphate as a known whitening agent (a positive control) and that obtained when any candidate sample was not used (control), according to the following evaluation criteria.
# The evaluation criteria for the cell-whitening degree are as follows:
# Regarding the results listed in Table 1, the whitening degree observed when adding 450 ppm of vitamin C-magnesium phosphate is selected as a standard.
SMILES,Melanin production-inhibitory effect (cell-whitening degree) (2 ppm),Melanin production-inhibitory effect (cell-whitening degree) (6 ppm),Melanin production-inhibitory effect (cell-whitening degree) (10 ppm),Melanin production-inhibitory effect (cell-whitening degree) (25 ppm),Melanin production-inhibitory effect (cell-whitening degree) (50 ppm),melanogenesis-inhibitory function relative to that observed when 450 ppm of vitamin C-magnesium phosphate (standard) is added,Melanin production-inhibitory effect (cell-whitening degree) (4 ppm),Melanin production-inhibitory effect (cell-whitening degree) (8 ppm),Melanin production-inhibitory effect (cell-whitening degree) (15 ppm),Melanin production-inhibitory effect (cell-whitening degree) (100 ppm),Melanin production-inhibitory effect (cell-whitening degree) (200 ppm),Melanin production-inhibitory effect (cell-whitening degree) (300 ppm),Melanin production-inhibitory effect (cell-whitening degree) (450 ppm)
CC1(C)CC[C@]2(CO)CC[C@]3(C)C(=CC[C@@H]4[C@@]5(C)CC[C@H](O)C(C)(C)[C@@H]5CC[C@]43C)[C@@H]2C1 [Erythrodiol],±,±,±,+,+,about 20 times,,,,,,,
"CC(=O)O[C@@H]1C[C@]2(C)[C@H]3CC=C4[C@@H]5CC(C)(C)CC[C@]5(C(=O)O)CC[C@@]4(C)[C@]3(C)CC[C@H]2C(C)(C)[C@H]1OC(C)=O [Compound of Synthesis 2, 2,3-O-Di-Acetyl-Maslinic Acid]",±,+,++,,,about 75 times,±,++,++,,,,
"C=C(C)[C@@H]1CC[C@]2(COC(C)=O)CC[C@]3(C)[C@H](CC[C@@H]4[C@@]5(C)CC[C@H](OC(C)=O)C(C)(C)[C@@H]5CC[C@]43C)[C@@H]12 [Compound of Synthesis 9, 3,28-O-Di-Acetyl-Betulin]",−,−,±,±,+,about 10 times,,,,,,,
"CC(=O)OC[C@]12CC[C@@H](C)[C@H](C)[C@H]1C1=CC[C@@H]3[C@@]4(C)CC[C@H](OC(C)=O)C(C)(C)[C@@H]4CC[C@@]3(C)[C@]1(C)CC2 [Compound of Synthesis 7, 3,28-O-Di-Acetyl-Uvaol]",−,−,±,+,+,about 20 times,,,,,,,
"O=c1cc(CO)occ1O [Kojic Acid, reference compound]",,,−,−,±,,,,−,±,+,++,++
"CC[Si](CC)(CC)OC(=O)[C@]12CCC(C)(C)C[C@H]1C1=CC[C@@H]3[C@@]4(C)C[C@@H](O[Si](CC)(CC)CC)[C@H](O[Si](CC)(CC)CC)C(C)(C)[C@@H]4CC[C@@]3(C)[C@]1(C)CC2 [Compound of Synthesis 3, Triethylsilyl Ester of 2,3-O-Di-Triethylsilyl-Maslinic Acid]",−,±,+,+,+,about 40 times,,,,,,,
C=C(C)[C@@H]1CC[C@]2(C(=O)O)CC[C@]3(C)[C@H](CC[C@@H]4[C@@]5(C)CC[C@H](O)C(C)(C)[C@@H]5CC[C@]43C)[C@@H]12 [Betulinic acid],−,±,+,+,+,about 40 times,,,,,,,
"CC1(C)CC[C@]2(C(=O)O)CC[C@]3(C)C(=CC[C@@H]4[C@@]5(C)C[C@@H](O)[C@H](O)C(C)(C)[C@@H]5CC[C@]43C)[C@@H]2C1 [Purified maslinic acid 2, maslinic acid]",±,++,++,,,,+,++,,,,,
"CCOC(=O)[C@]12CCC(C)(C)C[C@H]1C1=CC[C@@H]3[C@@]4(C)C[C@@H](O)[C@H](O)C(C)(C)[C@@H]4CC[C@@]3(C)[C@]1(C)CC2 [Compound of Synthesis 1, Ethyl Ester of Maslinic Acid]",±,++,++,,,about 110 times,+,++,,,,,
"CC(=O)OCC12CCC(C)(C)CC1C1=CCC3C4(C)CCC(OC(C)=O)C(C)(C)C4CCC3(C)C1(C)CC2 (stereo not drawn) [Compound of Synthesis 5, 3,28-O-Di-Acetyl-Erythrodiol]",−,±,±,+,+,about 20 times,,,,,,,
C[C@H]1[C@H](C)CC[C@]2(C(=O)O)CC[C@]3(C)C(=CC[C@@H]4[C@@]5(C)CC[C@H](O)C(C)(C)[C@@H]5CC[C@]43C)[C@H]12 [Ursolic acid],±,++,++,,,about 110 times,+,++,,,,,
C=C(C)[C@@H]1CC[C@]2(CO)CC[C@]3(C)[C@H](CC[C@@H]4[C@@]5(C)CC[C@H](O)C(C)(C)[C@@H]5CC[C@]43C)[C@@H]12 [Betulin],−,±,±,+,+,about 20 times,,,,,,,
"C=C(C)[C@@H]1CC[C@]2(C(=O)OCC)CC[C@]3(C)[C@H](CC[C@@H]4[C@@]5(C)CC[C@H](O)C(C)(C)[C@@H]5CC[C@]43C)[C@@H]12 [Compound of Synthesis 8, Ethyl Betulinate]",−,±,±,+,+,about 20 times,,,,,,,
"CCCCCCCCCCCCCCCCCC(=O)O[C@@H]1C[C@]2(C)[C@H]3CC=C4[C@@H]5CC(C)(C)CC[C@]5(C(=O)OCC)CC[C@@]4(C)[C@]3(C)CC[C@H]2C(C)(C)[C@H]1OC(=O)CCCCCCCCCCCCCCCCC [Compound of Synthesis 4, Ethyl 2,3-O-Di-Stearoyl-Maslinate]",±,+,++,,,about 75 times,±,++,++,,,,
